In publication PMC8151276, “An Integrated Approach toward NanoBRET Tracers for Analysis of GPCR Ligand Engagement” (Molecules, 2021):

Legend:
Format in all cases: binding
CCR1 = molecular target: T1, CCR1 (Homo sapiens, UniProt P32246); assay: NanoBRET screen HiBiT-CCR1 in HEK293
T1 construct: purchased Promega (in-house HiBiT-GPCR construct library, NanoBRET)
T1 sequence (P32246 1-355): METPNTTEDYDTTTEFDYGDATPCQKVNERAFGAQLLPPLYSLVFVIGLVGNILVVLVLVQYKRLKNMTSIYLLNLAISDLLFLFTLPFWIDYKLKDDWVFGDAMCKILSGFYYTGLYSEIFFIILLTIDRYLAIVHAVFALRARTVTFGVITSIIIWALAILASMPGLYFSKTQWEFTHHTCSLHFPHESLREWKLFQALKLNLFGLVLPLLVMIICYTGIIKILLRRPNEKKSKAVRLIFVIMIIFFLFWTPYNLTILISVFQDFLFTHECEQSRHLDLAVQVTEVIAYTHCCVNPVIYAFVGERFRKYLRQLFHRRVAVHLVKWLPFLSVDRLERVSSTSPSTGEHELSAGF
Protocol: (§1) Each tracer candidate was screened across the entire library of HiBiT-GPCR constructs using NanoBRET as the detection modality. As depicted in Figure 4A, the specificity of interactions was evaluated through decrease in BRET due to competitive displacement of a bound tracer by excess parental compound. Each tracer was analyzed for binding to each HiBiT-GPCR fusion in the absence and in the presence of competing parental compound. Briefly, HEK293 cells were transfected with HiBiT-GPCR constructs diluted into promoterless DNA to reduce expression and maximize translocation to the cell surface. Each tracer candidate was then screened at concentrations of 1 μM and 0.1 μM across cells expressing these fusions. Cells were treated for 1.5 h with tracer either alone or in the presence of 20 μM competing parental compound (i.e., control). BRET was measured upon addition of purified LgBiT and subsequent complementation with HiBiT genetically fused to a GPCR. The specificity of interactions was assessed through a decrease in BRET signal due to competitive displacement of the bound tracer. To further gauge the robustness of these interactions, the fold response over the control (i.e., BRETtracer/BRETcontrol) was calculated. We chose a 1.5-fold response, which translates to ≥7-fold signal over noise as the minimal threshold required to score an interaction as positive. […]. Below we highlight the screening results obtained for our exemplary fluorescent tracers based on Clozapine, Amitriptyline and AZD1283.
(§2) HiBiT-GPCR DNA constructs were diluted in 10 mM Tris pH 8 to a final concentration of 0.01 μg/μL, arrayed in 96-well plates and stored at −20 °C. For transfection, HEK293 cells were suspended in Opti-MEM (without phenol red) supplemented with 2% fetal bovine serum (Seradigm) and 100 units/mL penicillin–streptomycin (Gibco) at a final concentration of 220,000 cells/mL and dispensed into white 96-well plates at 90 μL/well. Subsequent transfections and screens were carried using an Agilent Bravo Automated Liquid Handling Platform. First, the 96-well HiBiT DNA arrays were diluted 25-fold in Opti-MEM (without serum or phenol red) to a final concentration of 0.0004 μg/μL and 20 μL of the diluted DNAs were transferred into new 96-well plates. Next, promoterless carrier DNA (1 μg/μL) was diluted 25-fold (0.04 μg/μL) and then dispensed into the diluted arrays at 20 μL/well. Following brief mixing, Viafect transfection reagent (Promega) diluted 16-fold into Opti-MEM was dispensed into the plates at 40 μL/well. After mixing by pipetting, plates were incubated for 10 min on the pipetting station deck. The DNA-transfection reagent complexes were then added to plates containing cells. To facilitate the screen, 10 μL of DNA-transfection reagent complexes were added in duplicates to the top 4 and bottom 4 rows, resulting in two identical 48-well arrays per plate. Plates with transfected cells were incubated for 18–20 h at 37 °C/5% CO2. A screen of each tracer across the entire library using two different concentrations requires duplicate plates of transfected cells. Depending on the number of tracers being screened, transfections can be scaled up using the same ratios. The next day, for each tracer, four 20× screening solutions in tracer dilution buffer (Promega) were prepared: two duplicates at final concentration of 20 μM and two duplicates at a final concentration of 2 μM. A competing unmodified compound was added to one of each duplicate at a final concentration of 400 μM. The four resulting solutions were diluted 4-fold in Opti-MEM without serum or phenol red to generate 5× solutions (5 µM and 0.5 µM tracer +/− 100 μM competing compound). To screen the library, a BioTek MultiFlo FX liquid dispenser was used to dispense 22.5 µL of tracer solution to the top 4 rows and 22.5 µL tracer + competing compound solution to the 4 bottom rows. Plates were briefly mixed on an orbital shaker and incubated for 1.5 h at room temperature. […]

P2RY1 = molecular target: T2, P2RY1 (Homo sapiens, UniProt P47900); assay: NanoBRET screen HiBiT-P2RY1 in HEK293
T2 construct: purchased Promega (in-house HiBiT-GPCR construct library, NanoBRET)
Protocol: as §1, §2

BRS3 = molecular target: T3, BRS3 (Homo sapiens, UniProt P32247); assay: NanoBRET screen HiBiT-BRS3 in HEK293
T3 construct: purchased Promega (in-house HiBiT-GPCR construct library, NanoBRET)
T3 sequence (P32247 1-399): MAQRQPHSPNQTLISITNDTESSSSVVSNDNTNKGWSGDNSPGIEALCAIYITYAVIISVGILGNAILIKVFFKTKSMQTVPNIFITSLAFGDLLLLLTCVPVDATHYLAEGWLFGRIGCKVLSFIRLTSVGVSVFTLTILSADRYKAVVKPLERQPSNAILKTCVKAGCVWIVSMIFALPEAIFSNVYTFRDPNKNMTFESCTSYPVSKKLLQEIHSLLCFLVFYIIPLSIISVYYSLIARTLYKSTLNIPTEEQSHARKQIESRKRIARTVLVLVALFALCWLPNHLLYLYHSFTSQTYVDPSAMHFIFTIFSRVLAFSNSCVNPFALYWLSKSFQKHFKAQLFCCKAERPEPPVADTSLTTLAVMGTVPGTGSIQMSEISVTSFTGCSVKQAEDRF
Protocol: as §1, §2

GRM4 = molecular target: T4, GRM4 (Homo sapiens, UniProt Q14833); assay: NanoBRET screen HiBiT-GRM4 in HEK293
T4 construct: purchased Promega (in-house HiBiT-GPCR construct library, NanoBRET)
Protocol: as §1, §2

[1] = tracer at 0.1μM, listed as amitriptyline-b-2-NB590

T4 sequence (Q14833 33-912): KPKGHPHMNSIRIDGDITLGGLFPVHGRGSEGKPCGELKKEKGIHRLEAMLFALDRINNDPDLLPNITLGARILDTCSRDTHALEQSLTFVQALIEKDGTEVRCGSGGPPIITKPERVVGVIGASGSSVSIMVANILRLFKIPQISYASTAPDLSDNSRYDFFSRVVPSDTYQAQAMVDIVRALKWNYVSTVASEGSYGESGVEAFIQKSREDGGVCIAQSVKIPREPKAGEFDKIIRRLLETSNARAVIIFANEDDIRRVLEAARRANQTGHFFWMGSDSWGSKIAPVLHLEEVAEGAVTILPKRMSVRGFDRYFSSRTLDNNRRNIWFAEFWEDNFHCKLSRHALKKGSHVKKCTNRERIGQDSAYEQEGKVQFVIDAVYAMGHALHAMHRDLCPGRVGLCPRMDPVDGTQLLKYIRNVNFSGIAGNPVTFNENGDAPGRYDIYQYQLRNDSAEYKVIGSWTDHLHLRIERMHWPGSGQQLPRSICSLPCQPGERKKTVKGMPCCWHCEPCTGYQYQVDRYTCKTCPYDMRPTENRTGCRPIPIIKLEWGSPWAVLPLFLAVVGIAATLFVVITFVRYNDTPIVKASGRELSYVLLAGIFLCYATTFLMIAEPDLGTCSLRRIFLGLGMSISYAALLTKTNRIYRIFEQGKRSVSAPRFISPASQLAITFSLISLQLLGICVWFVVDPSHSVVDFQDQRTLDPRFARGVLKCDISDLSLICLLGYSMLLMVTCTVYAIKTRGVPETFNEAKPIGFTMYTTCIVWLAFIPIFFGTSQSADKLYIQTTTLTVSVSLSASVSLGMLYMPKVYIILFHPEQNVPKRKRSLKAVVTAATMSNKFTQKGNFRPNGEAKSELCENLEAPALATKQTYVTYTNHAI
T2 sequence (P47900 whole entry): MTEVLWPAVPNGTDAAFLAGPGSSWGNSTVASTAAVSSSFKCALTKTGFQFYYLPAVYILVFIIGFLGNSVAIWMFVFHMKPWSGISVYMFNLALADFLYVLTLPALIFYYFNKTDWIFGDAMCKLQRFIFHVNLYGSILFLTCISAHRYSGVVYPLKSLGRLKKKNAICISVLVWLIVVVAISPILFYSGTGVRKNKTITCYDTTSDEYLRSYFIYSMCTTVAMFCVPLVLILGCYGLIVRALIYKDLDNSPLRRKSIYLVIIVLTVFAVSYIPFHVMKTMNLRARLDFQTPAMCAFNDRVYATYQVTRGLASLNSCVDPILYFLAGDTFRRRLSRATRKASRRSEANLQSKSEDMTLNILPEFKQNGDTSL

With `CCOC(=O)c1cc(C#N)c(N2CCC(C(=O)NS(=O)(=O)Cc3ccccc3/C=C/C(=O)NCCNC(=O)CCc3ccc4n3[B-](F)(F)[N+]3=C(c5ccc[nH]5)C=CC3=C4)CC2)nc1C` [AZD1283-1-NB590] the “NanoBRET Fold Response” value (CCR1; CCR1, 0.1μM) was 1.05, the “NanoBRET Fold Response” value (CCR1; CCR1, 1μM) was 1.03 and the “NanoBRET Fold Response” value (P2RY1; P2RY1, 0.1μM) was 1.06. For the same compound, the “NanoBRET Fold Response” value (P2RY1; P2RY1, 1μM) was 1.05, the “NanoBRET Fold Response” value (BRS3; BRS3, 0.1μM) was 1.10 and the “NanoBRET Fold Response” value (BRS3; BRS3, 1μM) was 1.02. For the same compound, the “NanoBRET Fold Response” value (GRM4; GRM4, 0.1μM) was 1.06 and the “NanoBRET Fold Response” value (GRM4; GRM4, 1μM) was 1.07.
`N#CN=C(NCCCOc1cccc(CN2CCCCC2)c1)NCCNC(=O)CCOCCOCCOCCOCCNC(=O)CCc1ccc2n1[B-](F)(F)[N+]1=C(c3ccc[nH]3)C=CC1=C2` [Aminopotentidine-2-NB590] was tested, and the “NanoBRET Fold Response” value (CCR1; CCR1, tracer 0.1μM) was 0.95, the “NanoBRET Fold Response” value (CCR1; CCR1, tracer 1μM) was 1.03 and the “NanoBRET Fold Response” value (P2RY1; P2RY1, tracer 0.1μM) was 1.02. The “NanoBRET Fold Response” value (P2RY1; P2RY1, tracer 1μM) was 1.02, the “NanoBRET Fold Response” value (BRS3; BRS3, tracer 0.1μM) was 1.02 and the “NanoBRET Fold Response” value (BRS3; BRS3, tracer 1μM) was 1.00. For the same compound, the “NanoBRET Fold Response” value (GRM4; GRM4, tracer 0.1μM) was 1.02 and the “NanoBRET Fold Response” value (GRM4; GRM4, tracer 1μM) was 1.01.
`CN(C)CCC=C1c2ccccc2CCc2ccc(C(=O)NCCNC(=O)CCOCCOCCOCCOCCNC(=O)CCc3ccc4n3[B-](F)(F)[N+]3=C(c5ccc[nH]5)C=CC3=C4)cc21` [Amitriptyline-a-2-NB590] was tested, and the “NanoBRET Fold Response” value (CCR1; tracer at 0.1μM) was 0.99, the “NanoBRET Fold Response” value (CCR1; tracer at 1μM) was 1.07 and the “NanoBRET Fold Response” value (P2RY1; tracer at 0.1μM) was 0.97. For the same compound, the “NanoBRET Fold Response” value (P2RY1; tracer at 1μM) was 1.01, the “NanoBRET Fold Response” value (BRS3; tracer at 0.1μM) was 1.02 and the “NanoBRET Fold Response” value (BRS3; tracer at 1μM) was 0.99.
`CN(C)CCC=C1c2ccccc2CCc2ccc(C(=O)NCCNC(=O)CCOCCOCCOCCOCCNC(=O)CCc3ccc4n3[B-](F)(F)[N+]3=C(c5ccc[nH]5)C=CC3=C4)cc21` [Amitriptyline-b-2-NB590] was tested, and the “NanoBRET Fold Response” value (CCR1; [1]) was 0.84, the “NanoBRET Fold Response” value (CCR1; tracer at 1μM) was 0.97 and the “NanoBRET Fold Response” value (P2RY1; [1]) was 1.13. The “NanoBRET Fold Response” value (BRS3; tracer at 0.1μM) was 0.92, the “NanoBRET Fold Response” value (BRS3; tracer at 1μM, listed as amitriptyline-b-2-NB590) was 1.07 and the “NanoBRET Fold Response” value (GRM4; GRM4, tracer 0.1μM) was 0.96. For the same compound, the “NanoBRET Fold Response” value (GRM4; GRM4, tracer 1μM) was 0.95.
With `CN(CCC=C1c2ccccc2CCc2ccccc21)C(=O)CCOCCOCCOCCOCCNC(=O)CCc1ccc2n1[B-](F)(F)[N+]1=C(c3ccc[nH]3)C=CC1=C2` [Amitriptyline-e-2-NB590] the “NanoBRET Fold Response” value (CCR1; tracer at 1μM) was 0.99 and the “NanoBRET Fold Response” value (P2RY1; tracer at 1μM) was 0.96.
`COc1ccc2c(n1)c(CCNC(C)=O)cn2CCNC(=O)CCc1ccc2n1[B-](F)(F)[N+]1=C(c3ccc[nH]3)C=CC1=C2` [Azamelatonin-1-NB590] was tested, and the “NanoBRET Fold Response” value (CCR1; 0.1μM tracer) was 0.90, the “NanoBRET Fold Response” value (CCR1; 1μM tracer) was 1.04 and the “NanoBRET Fold Response” value (P2RY1; 0.1μM tracer) was 0.99. For the same compound, the “NanoBRET Fold Response” value (P2RY1; 1μM tracer) was 0.99, the “NanoBRET Fold Response” value (BRS3; 0.1μM tracer) was 0.95 and the “NanoBRET Fold Response” value (BRS3; 1μM tracer) was 0.95. For the same compound, the “NanoBRET Fold Response” value (GRM4; 0.1μM tracer) was 1.09 and the “NanoBRET Fold Response” value (GRM4; 1μM tracer) was 0.78.
